# Source: patent US6344471B1 (priority 1998, dated 2002)
# Experiments:
# [1] = molecular target: high-affinity DFP binding site; set-up: species or system rat
# acetylcholinesterase = acetylcholinesterase (Rattus norvegicus, UniProt P37136); experiment: biochemical
# [2] = tested on: rats having a lesion of the entorhinal cortex; conditions: rat, in vivo, ip
# young adult rats = conditions: rat, in vivo; cited from earlier work
# acetylcholinesterase, sequence (P37136 32-614): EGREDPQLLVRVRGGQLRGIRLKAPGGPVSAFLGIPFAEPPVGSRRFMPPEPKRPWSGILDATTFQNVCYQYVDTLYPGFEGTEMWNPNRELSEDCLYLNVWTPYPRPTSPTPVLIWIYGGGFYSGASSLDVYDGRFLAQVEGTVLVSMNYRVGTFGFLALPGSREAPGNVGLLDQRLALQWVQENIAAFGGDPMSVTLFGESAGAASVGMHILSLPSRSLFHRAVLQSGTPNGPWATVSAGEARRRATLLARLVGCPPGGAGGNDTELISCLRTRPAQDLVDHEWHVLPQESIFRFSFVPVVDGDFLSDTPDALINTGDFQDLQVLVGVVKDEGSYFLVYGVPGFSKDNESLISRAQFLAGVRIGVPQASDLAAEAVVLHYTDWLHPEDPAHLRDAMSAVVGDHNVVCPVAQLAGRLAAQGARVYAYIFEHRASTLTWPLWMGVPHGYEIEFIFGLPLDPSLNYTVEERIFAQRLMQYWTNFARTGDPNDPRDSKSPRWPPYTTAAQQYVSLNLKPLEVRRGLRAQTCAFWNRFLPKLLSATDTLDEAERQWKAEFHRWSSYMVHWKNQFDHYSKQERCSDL
compound,measurement,setting,value
"CCCc1c(CC)c(=O)on1C(=O)N1CCCC1 [Example 1, 4-Ethyl-3-propyl-2-(1-pyrrolidinylcarbonyl)-5(2H)-isoxazolone]",IC50,"[1]; read-out: IC50, inhibition of binding of [3H]DFP to the high-affinity binding site",4.8 nM
same,Ki,acetylcholinesterase,> 10000 nM
same,selectivity (DFP binding site vs acetylcholinesterase),acetylcholinesterase,> 2000
same,antagonism of the learning weakness induced by lesion of the entorhinal cortex,[2],not capable of antagonizing the learning weakness
same,learning of the platform position,[2],sped up learning of the platform position considerably
same,performance level on the second day of training,[2],same performance level as the vehicle-treated animals after 5 days of training
"COP(=O)(OC)OC=C(Cl)Cl [dichlorvos, reference compound]",binding/affinity to the high-affinity DFP binding site ([3H]DFP competition in vitro),[1],binds
Nc1c2c(nc3ccccc13)CCCC2 [tacrine],improvement of cognitive learning ability,young adult rats,no improvement
